Values after ≈ are worked out from the molar mass of the structure shown.
Columns and labels:
[1] = test system: mouse-derived preosteoblast cell line MC3T3-E1; assay: Cytotoxicity evaluation, relative cell metabolic activity (CellTiter-Blue), MC3T3-E1; assay type: cell-based; conditions: 24 h, mean ± SD; for viability at 10 µM / viability at 25 µM / viability at 50 µM: Mus musculus, read-out: Relative metabolic activity of MC3T3-E1 cells; for viability at 10 µM: MC3T3-E1, 10 µM; for viability at 25 µM: MC3T3-E1, 25 µM; for viability at 50 µM: MC3T3-E1, 50 µM
Protocol: (§1) All target compounds were studied to determine their cytotoxic activity at various concentrations of each compound (10–50 µM) against human-derived osteosarcoma cell line MG-63 (ATCC, CRL-1427) and mouse-derived preosteoblast cell line MC3T3-E1 (ATCC, CRL-2593) (Table 4 and Figures S1-S4 in the Supporting Information). For the comparison, naturally occurring betulinic, oleanolic (1b) and ursolic (1c) acids as well as their 3-oxo analogs 2a-c and doxorubicin, were also subjected to the cytotoxicity tests.
(§2) Cytotoxicity of betulinic acid, ursolic acid and oleanolic acid derivatives was evaluated using human-derived osteosarcoma cell line MG63 (ATCC, CRL-1427) and mouse-derived preosteoblast cell line MC3T3-E1 (ATCC CRL-2593). Before conducting the experiments, both cell lines were continuously cultured according to the ATCC product sheet instructions. Briefly, both cell lines were expanded in α-MEM medium supplemented with 10% FBS and 1% pen-strep and maintained at 37 °C in a humidified atmosphere with 5% CO2.
(§3) Each cell line was plated at a concentration of 1 × 10^4 cells/well in 96-well plate. The plates were incubated for 24 h to allow cell attachment and growth. Bioactive substances were solubilized in methanol prior further dilution in cell culture media. Following the cell incubation period, the culture media was removed and the dilutions of active substance (10, 25 and 50 µM) in cell culture media were added. The culture medium only and its dilutions with methanol solution respective to the bioactive substance concentrations were used as the controls. […] Cells were treated with bioactive substance solutions for 24 h. After 24 h incubation, relative cell metabolic activity was assessed using CellTiter-Blue® (CTB) analysis (Promega, JAV). […] was measured at 590 nm using microplate reader (Infinite® 200 PRO, Tecan, USA). The relative cell metabolic activity was calculated for each bioactive substance concentration as well as for the controls. […] Statistically significant differences between sample groups are assessed using a one-way ANOVA test and then corrected using the Šídák multiple comparison test. Statistically significant differences were considered to be those with a P-values less than 0.05 (p < 0.05).
as §2, with “10 %” for “10%”, “1 %” for “1%”, “5 %” for “5%”
(§4) […]

[2] = test system: human-derived osteosarcoma cell line MG-63; assay: Cytotoxicity evaluation, relative cell metabolic activity (CellTiter-Blue), MG-63; assay type: cell-based; conditions: 24 h, mean ± SD; for viability at 10 µM / viability at 25 µM / viability at 50 µM: Homo sapiens, read-out: Relative metabolic activity of MG-63 cells; for viability at 10 µM: MG-63, 10 µM; for viability at 25 µM: MG-63, 25 µM; for viability at 50 µM: MG-63, 50 µM
Protocol: as §1, §2, §3
as §2, with “10 %” for “10%”, “1 %” for “1%”, “5 %” for “5%”
as §4

[3] = cited from earlier work
[4] = Water solubility determination by quantitative 1H-NMR in D2O; assay type: physicochemical; conditions: D2O adjusted with NaOD, aqueous buffer, thermodynamic from solid; qNMR in D2O, pH 8.0-8.5 (NaOD), room temperature, potassium hydrogen phthalate external standard
Text: The obtained PCT-derived sodium phosphonates were subjected to water solubility tests (Table 3). For this purpose, we used a quantitative ^1H-NMR approach in D2O, using potassium hydrogen phthalate as an external standard (for experimental details see Supporting Information). The presence of the basic forms of phosphonates[80] was ensured by the careful addition of NaOD, maintaining pH 8.0–8.5 during the quantification, which is 2–3 units higher than the pKa of phosphonic acid disalt. […] This is by at least two to three orders of magnitude higher than the reported solubilities of the parent natural triterpenic acids. […] Indeed, phosphonic acids are more acidic and easier ionizable than carboxylic acids. This ionic character helps to increase the aqueous solubility as exemplified by here described compounds.
Water solubility determination
To suspension of PCT phosphonate sample (10 mg) in D2O (500 µL) 0.8% solution of NaOD in D2O was added dropwise until pH = 8-8.5 (<100 µL). Obtained suspension was sonified in ultrasonic bath for 10 min. Undissolved particles were separated by centrifugation. Clear D2O solution was carefully transferred to NMR tube equipped with external standard vial.
Formula (1) was used to determine the solubility of PCT sample in the D2O.
[…]
SolPCT - solubility of PCT sample in D2O at room temperature (mg/mL)
IPCT - integral value of PCT signal of choice
Ist - integral value of external standard signal of choice
NPCT - number of integrated protons of PCT
Nst - number of integrated protons of external standard
V - volume of used D2O (mL) mst - mass of external standard (mg)
Mbet - molecular weight of PCT (g•mol−1)
Mst - molecular weight of external standard - potassium hydrogen phthalate (204.22 […]
Wst - assay of the external standard (99.5 %)

Compound	viability at 10 µM [1] [%]	viability at 25 µM [1] [%]	viability at 50 µM [1] [%]	viability at 10 µM [2] [%]	viability at 25 µM [2] [%]	viability at 50 µM [2] [%]	Solubility in distilled water ([3]; distilled water) [µg/mL]	Aqueous solubility at neutral pH [3] [µg/mL]	Solubility in sodium phosphate solution ([3]; pH 11.4, sodium phosphate solution) [µg/mL]	Aqueous solubility at pH 11.8 [3] [µg/mL]	solubility at 10 min [4] [µg/mL]	Relative metabolic activity of MC3T3-E1 cells ([1]; 10 µM)	Relative metabolic activity of MC3T3-E1 cells ([1]; 25 µM)	Relative metabolic activity of MC3T3-E1 cells ([1]; 50 µM)	Relative metabolic activity of MG-63 cells ([2]; 10 µM)	Relative metabolic activity of MG-63 cells ([2]; 25 µM)	Relative metabolic activity of MG-63 cells ([2]; 50 µM)	Aqueous solubility (in words) ([3]; compared with oleanolic and betulinic acids)
COc1cccc2c1C(=O)c1c(O)c3c(c(O)c1C2=O)C[C@@](O)(C(=O)CO)C[C@@H]3O[C@H]1C[C@H](N)[C@H](O)[C@H](C)O1 [Doxorubicin]	72 ± 7	60 ± 3	53 ± 3	41 ± 2	19 ± 1	16 ± 2												
C=C(C)[C@@H]1CC[C@]2(C(=O)O)CC[C@]3(C)[C@H](CC[C@@H]4[C@@]5(C)CC[C@H](O)C(C)(C)[C@@H]5CC[C@]43C)[C@@H]12 [Betulinic acid]	76 ± 7	56 ± 4	97 ± 7	74 ± 16	91 ± 14	112 ± 8	0.021 (≈ 0.046 µM)	< 0.1	40.1 (≈ 87.8 µM)	42.1								
CC1CCC2(C(=O)OCP(=O)([O-])[O-])CCC3(C)C(=CCC4C5(C)CCC(=O)C(C)(C)C5CCC43C)C2C1C.[Na+].[Na+] (stereo not drawn) [7c]	91 ± 6	90 ± 3	94 ± 5	96 ± 4	98 ± 4	112 ± 3					26000							
CC1(C)CC[C@]2(C(=O)O)CC[C@]3(C)C(=CC[C@@H]4[C@@]5(C)CCC(=O)C(C)(C)[C@@H]5CC[C@]43C)[C@@H]2C1 [Oleanonic acid (2b), Oleanonic acid]	110 ± 1	99 ± 5	49 ± 12	151 ± 8	160 ± 3	103 ± 18												
CC1(C)CCC2(C(=O)OCP(=O)([O-])[O-])CCC3(C)C(=CCC4C5(C)CCC(=O)C(C)(C)C5CCC43C)C2C1.[Na+].[Na+] (stereo not drawn) [7b]	131 ± 8	150 ± 4	104 ± 5	113 ± 8	132 ± 5	119 ± 5					8000							
CC1(C)CCC2(C(=O)OCP(=O)([O-])[O-])CCC3(C)C(=CCC4C5(C)CCC(O)C(C)(C)C5CCC43C)C2C1.[Na+].[Na+] (stereo not drawn) [8b]											7000							
Sodium (3-oxo-(17R)-17-28-norlup-20(29)-en)-2-oxoethyl-phosphonate [7a]												1.41 ± 0.01	1.27 ± 0.05	1.13 ± 0.03	1.10 ± 0.04	1.30 ± 0.06	1.09 ± 0.04	
C=C(C)[C@@H]1CC[C@]2(C(=O)O)CC[C@]3(C)[C@H](CC[C@@H]4[C@@]5(C)CCC(=O)C(C)(C)[C@@H]5CC[C@]43C)[C@@H]12 [Betulonic acid (2a), Betulonic acid]	139 ± 6	170 ± 5	122 ± 1	114 ± 2	96 ± 4	88 ± 8												
C=C(C)C1CCC2(C(=O)OCP(=O)([O-])[O-])CCC3(C)C(CCC4C5(C)CCC(O)C(C)(C)C5CCC43C)C12.[Na+].[Na+] (stereo not drawn) [8a]	108 ± 5	119 ± 4	101 ± 5	158 ± 5	124 ± 25	159 ± 17					3000							
C=C(C)[C@@H]1CC[C@]2(COCP(=O)([O-])[O-])CC[C@]3(C)[C@H](CC[C@@H]4[C@@]5(C)CC[C@H](OCP(=O)([O-])[O-])C(C)(C)[C@@H]5CC[C@]43C)[C@@H]12.[Na+].[Na+].[Na+].[Na+] [compound 12, Sodium (lup-20(29)-en-(3 S)-3,28-diylbis(oxymethylene))bis(phosphonate)]	90 ± 7	93 ± 6	92 ± 4	97 ± 8	89 ± 5	94 ± 4					3000							
CC1(C)CC[C@]2(C(=O)O)CC[C@]3(C)C(=CC[C@@H]4[C@@]5(C)CC[C@H](O)C(C)(C)[C@@H]5CC[C@]43C)[C@@H]2C1 [Oleanolic acid (1b), Oleanolic acid]	104 ± 7	97 ± 8	96 ± 5	77 ± 14	158 ± 13	129 ± 11		< 0.1		99.5								
C[C@H]1[C@H](C)CC[C@]2(C(=O)O)CC[C@]3(C)C(=CC[C@@H]4[C@@]5(C)CC[C@H](O)C(C)(C)[C@@H]5CC[C@]43C)[C@H]12 [Ursolic acid (1c), Ursolic acid]	106 ± 5	83 ± 5	99 ± 8	66 ± 3	64 ± 3	28 ± 4												similarly low aqueous solubility
C[C@H]1[C@H](C)CC[C@]2(C(=O)O)CC[C@]3(C)C(=CC[C@@H]4[C@@]5(C)CCC(=O)C(C)(C)[C@@H]5CC[C@]43C)[C@H]12 [Ursonic acid (2c), Ursonic acid]	74 ± 2	107 ± 7	72 ± 9	76 ± 8	67 ± 4	67 ± 4												
